Our source for the Kd values is publication PMC6449043 (ACS chemical biology, 2018).

The assay addresses ndSQR (sulfide quinone oxidoreductase in nanodiscs) (Homo sapiens, UniProt Q9Y6N5). Briefly: spectral titration of charge-transfer complex at […] nm. The format is binding.

Broadly, the Kd is the equilibrium constant for the complex coming apart.

Sequence of ndSQR (sulfide quinone oxidoreductase in nanodiscs) (Q9Y6N5 42-450): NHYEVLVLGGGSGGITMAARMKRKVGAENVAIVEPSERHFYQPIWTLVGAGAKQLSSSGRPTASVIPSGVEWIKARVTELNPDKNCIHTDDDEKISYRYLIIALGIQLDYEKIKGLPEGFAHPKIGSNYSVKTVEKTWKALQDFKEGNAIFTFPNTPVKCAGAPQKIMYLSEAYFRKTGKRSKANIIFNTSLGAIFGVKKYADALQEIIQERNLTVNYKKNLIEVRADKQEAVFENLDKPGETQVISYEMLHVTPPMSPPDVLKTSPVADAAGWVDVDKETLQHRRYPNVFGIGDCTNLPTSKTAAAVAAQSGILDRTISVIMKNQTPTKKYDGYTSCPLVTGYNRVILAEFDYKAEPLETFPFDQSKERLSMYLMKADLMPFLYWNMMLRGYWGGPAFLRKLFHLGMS

Compound `CS` [MeSH] gave a Kd of 38 ± 1 µM.
